A short description of assay [1]: Inhibition of NS5A in HCV genotype 1b infected in […] cells assessed as reduction in viral replication incubated for 48 hrs by luciferase reporter gene assay.
The nature of assay [2]: Inhibition of NS5A in HCV genotype 1a infected in […] cells assessed as reduction in viral replication incubated for 48 hrs by luciferase reporter gene assay. Background: A reporter such as luciferase makes a cellular process visible.
The nature of assay [3]: Inhibition of NS5A in HCV genotype 2a con infected in […] cells assessed as reduction in viral replication incubated for 48 hrs by luciferase reporter gene assay.
Assay [4] in a line: Inhibition of NS5A in patient-derived HCV genotype 2a infected in […] cells assessed as reduction in viral replication incubated for 48 hrs by luciferase reporter gene assay.
Assay [5] can be described thus: Inhibition of NS5A in patient-derived HCV genotype 3a infected in […] cells assessed as reduction in viral replication incubated for 48 hrs by luciferase reporter gene assay.
Assay [6] in a line: Inhibition of NS5A in HCV genotype 3a con infected in […] cells assessed as reduction in viral replication incubated for 48 hrs by luciferase reporter gene assay.

The structures appear in SMILES notation. Some results are limits rather than exact numbers.

As usually defined, the EC50 is the concentration giving half of the maximal effect.

Take `COC(=O)N[C@H](C(=O)N1[C@H](c2ncc(-c3ccc4c(c3)Cc3cc(-c5cnc([C@@H]6C[C@@H]7CCC[C@@H]7N6C(=O)[C@@H](NC(=O)OC)[C@@H](C)OC)[nH]5)ccc3-4)[nH]2)C[C@@H]2CCC[C@@H]21)[C@@H](C)OC`: the EC50 in assay [1] turned out to be 0.022 nM; in assay [2], 0.041 nM.
On to `COC(=O)N[C@H](C(=O)N1[C@H](c2ncc(-c3ccc4c(c3)-c3ccc(-c5cnc([C@@H]6C[C@@H]7CCCC[C@@H]7N6C(=O)[C@@H](NC(=O)OC)C(C)C)[nH]5)cc3-4)[nH]2)C[C@@H]2CCCC[C@@H]21)C(C)C`, for which the EC50 was 3.33 nM in assay [3] and 0.02 nM in assay [2].
Consider `COC(=O)N[C@H](C(=O)N1[C@H](c2ncc(-c3ccc4c(c3)-c3ccc(-c5cnc([C@@H]6C[C@@H]7CCC[C@@H]7N6C(=O)[C@@H](NC(=O)OC)[C@@H](C)OC)[nH]5)cc3-4)[nH]2)C[C@@H]2CCC[C@@H]21)[C@@H](C)O`, for which the EC50 in assay [3] turned out to be 0.188 nM; in assay [1], 0.008 nM; in assay [2], 0.014 nM; in assay [4], 1.03 nM; in assay [5], 0.006 nM.
Turning to `COC(=O)N[C@H](C(=O)N1[C@H](c2ncc(-c3ccc4c(c3)-c3ccc(-c5cnc([C@@H]6C[C@@H]7CCC[C@@H]7N6C(=O)[C@@H](NC(=O)OC)C(C)C)[nH]5)cc3-4)[nH]2)C[C@@H]2CCC[C@@H]21)C(C)C`, the EC50 in assay [3] is 4.52 nM; in assay [2] it was 0.01 nM.
Regarding `COC(=O)N[C@H](C(=O)N1[C@H](c2ncc(-c3ccc4c(c3)-c3ccc(-c5cnc([C@@H]6C[C@@H]7CCC[C@@H]7N6C(=O)[C@@H](NC(=O)OC)[C@H](C)O)[nH]5)cc3-4)[nH]2)C[C@@H]2CCC[C@@H]21)[C@H](C)O`, the figures for the EC50 in assay [3], in assay [1] and in assay [2] were 35.1 nM, 0.01 nM and 0.302 nM, respectively.
For `COC(=O)N[C@@H](CO)C(=O)N1[C@H](c2ncc(-c3ccc4c(c3)-c3ccc(-c5cnc([C@@H]6C[C@@H]7CCC[C@@H]7N6C(=O)[C@H](CO)NC(=O)OC)[nH]5)cc3-4)[nH]2)C[C@@H]2CCC[C@@H]21`, in that order: 8.91 nM, 0.009 nM and 0.055 nM.
With `COC(=O)N[C@H](C(=O)N1[C@H](c2ncc(-c3ccc4c(c3)S(=O)(=O)c3cc(-c5cnc([C@@H]6C[C@@H]7CCC[C@@H]7N6C(=O)[C@@H](NC(=O)OC)[C@@H](C)OC)[nH]5)ccc3-4)[nH]2)C[C@@H]2CCC[C@@H]21)[C@@H](C)OC`, the EC50 in assay [1] was 0.028 nM; in assay [2], 0.081 nM.
As to `COC(=O)N[C@H](C(=O)N1[C@H](c2ncc(-c3ccc4c(c3)C(F)(F)c3cc(-c5cnc([C@@H]6C[C@@H]7CCC[C@@H]7N6C(=O)[C@@H](NC(=O)OC)[C@@H](C)OC)[nH]5)ccc3-4)[nH]2)C[C@@H]2CCC[C@@H]21)[C@@H](C)OC`, the concentration giving a half-maximal response (EC50) was found to be 0.017 nM in assay [1] and 0.029 nM in assay [2].
For `COC(=O)N[C@H](C(=O)N1[C@H](c2ncc(-c3ccc4c(c3)Cc3ccc(-c5cnc([C@@H]6C[C@@H]7CCC[C@@H]7N6C(=O)[C@@H](NC(=O)OC)[C@@H](C)OC)[nH]5)cc3C4)[nH]2)C[C@@H]2CCC[C@@H]21)[C@@H](C)OC`, in that order: 0.02 nM and 0.03 nM.
Taken in the same sequence, the figures for `COC(=O)N[C@H](C(=O)N1[C@H](c2ncc(-c3ccc4c5ccc(-c6cnc([C@@H]7C[C@@H]8CCC[C@@H]8N7C(=O)[C@@H](NC(=O)OC)[C@@H](C)OC)[nH]6)cc5n(C)c4c3)[nH]2)C[C@@H]2CCC[C@@H]21)[C@@H](C)OC` were 0.028 nM and 0.148 nM.
Take `COC(=O)N[C@H](C(=O)N1[C@H](c2ncc(-c3ccc4c(c3)-c3ccc(-c5cnc([C@@H]6C[C@@H]7CCC[C@@H]7N6C(=O)[C@@H](NC(=O)OC)[C@@H](C)O)[nH]5)cc3-4)[nH]2)C[C@@H]2CCC[C@@H]21)[C@@H](C)O`: the EC50 in assay [3] came to 0.141 nM; in assay [6], 0.018 nM; in assay [2], 0.011 nM; in assay [4], 1.06 nM; in assay [5] it was 0.005 nM.
Consider `COC(=O)N[C@@H](CO)C(=O)N1[C@H](c2ncc(-c3ccc4c(c3)-c3ccc(-c5cnc([C@@H]6C[C@@H]7CCC[C@@H]7N6C(=O)[C@@H](NC(=O)OC)C(C)C)[nH]5)cc3-4)[nH]2)C[C@@H]2CCC[C@@H]21`, for which the EC50 came to 4.37 nM in assay [3] and 0.02 nM in assay [2].
With `COC(=O)N[C@H](C(=O)N1CCC[C@H]1c1ncc(-c2ccc3c(c2)-c2ccc(-c4cnc([C@@H]5CCCN5C(=O)[C@@H](c5ccccc5)N(C)C)[nH]4)cc2-3)[nH]1)C(C)C`, the EC50 in assay [3] was 1.47 nM; in assay [1], 0.014 nM; in assay [2], 0.053 nM.
For `COC(=O)N[C@H](C(=O)N1CCC[C@H]1c1ncc(-c2ccc3c(c2)-c2ccc(-c4cnc([C@@H]5CCCN5C(=O)[C@@H](NC(=O)OC)C(C)C)[nH]4)cc2-3)[nH]1)C(C)C`, the EC50 in assay [3] was 32 nM; in assay [6], below 0.025 nM; in assay [1], 0.008 nM; in assay [2] it was 0.044 nM; in assay [4], 48.8 nM; in assay [5] it was 0.018 nM.
In the case of `COC(=O)N[C@H](C(=O)N1CCC[C@H]1c1nc(-c2ccc(-c3ccc(-c4c[nH]c([C@@H]5CCCN5C(=O)[C@@H](NC(=O)OC)C(C)C)n4)cc3)cc2)c[nH]1)C(C)C` [BMS-790052], the EC50 in assay [3] came to 52.8 nM; in assay [6], 0.412 nM; in assay [1], 0.008 nM; in assay [2], 0.032 nM; in assay [4] it was 49.4 nM; in assay [5] it was 0.115 nM.
`COC(=O)N[C@H](C(=O)N1[C@H](c2ncc(-c3ccc4c(c3)-c3ccc(-c5cnc([C@@H]6C[C@@H]7CCC[C@@H]7N6C(=O)[C@@H](NC(=O)OC)[C@@H](C)O)[nH]5)cc3-4)[nH]2)C[C@@H]2CCC[C@@H]21)C(C)C`: the values for the EC50 in assay [3], in assay [1] and in assay [2] were 0.97 nM, 0.006 nM and 0.013 nM, respectively.
Take `COC(=O)N[C@H](C(=O)N1[C@H](c2ncc(-c3ccc4c(c3)-c3ccc(-c5cnc([C@@H]6C[C@@H]7CCC[C@@H]7N6C(=O)[C@@H](NC(=O)OC)[C@@H](C)OC)[nH]5)cc3-4)[nH]2)C[C@@H]2CCC[C@@H]21)[C@@H](C)OC`: the EC50 in assay [3] was determined as 0.115 nM; in assay [6], 0.02 nM; in assay [1], 0.008 nM; in assay [2], 0.01 nM; in assay [4], 0.664 nM; in assay [5], 0.003 nM.
With `COC(=O)N[C@H](C(=O)N1[C@H](c2ncc(-c3ccc4c(c3)Oc3ccc(-c5cnc([C@@H]6C[C@@H]7CCC[C@@H]7N6C(=O)[C@@H](NC(=O)OC)[C@@H](C)OC)[nH]5)cc3O4)[nH]2)C[C@@H]2CCC[C@@H]21)[C@@H](C)OC`, the EC50 in assay [1] worked out at 0.007 nM; in assay [2] it was 0.012 nM.
Taken in the same sequence, the figures for `COC(=O)N[C@H](C(=O)N1[C@H](c2ncc(-c3ccc4c(c3)CCc3cc(-c5cnc([C@@H]6C[C@@H]7CCC[C@@H]7N6C(=O)[C@@H](NC(=O)OC)[C@@H](C)OC)[nH]5)ccc3-4)[nH]2)C[C@@H]2CCC[C@@H]21)[C@@H](C)OC` were 0.015 nM and 0.017 nM.
For the compound `COC(=O)N[C@H](C(=O)N1CCC[C@H]1c1ncc(-c2ccc3c(c2)-c2ccc(-c4cnc([C@@H]5C[C@@H]6CCCC[C@@H]6N5C(=O)[C@@H](NC(=O)OC)C(C)C)[nH]4)cc2-3)[nH]1)C(C)C`, the EC50 worked out at 12.2 nM in assay [3] and 0.009 nM in assay [2].
For `CN(C)[C@@H](C(=O)N1CCC[C@H]1c1ncc(-c2ccc3c(c2)-c2ccc(-c4cnc([C@@H]5CCCN5C(=O)[C@@H](c5ccccc5)N(C)C)[nH]4)cc2-3)[nH]1)c1ccccc1`, the values for the EC50 in assay [3], in assay [1] and in assay [2] were 0.327 nM, 0.081 nM and 0.248 nM, respectively.

These data come from BindingDB's records for doi:10.1021/acs.jmedchem.9b02176 (Glaxosmithkline, 2020).
